Test results taken from patent US8865200B2, “Sustained release compositions containing progesterone receptor modulators” (Laboratoire HRA Pharma, priority 2004, dated 2014).

How the values were obtained:
[1] = In vitro release rate from vaginal rings; assay type: physicochemical; conditions: for in vitro release rate: vaginal ring, 20% load W/W, redistilled water, 37 C
Procedure: Thread was used to suspend the rings prepared in example 1 individually in 500 mL wide mouth polyethylene bottles with screw caps. 400 mL of redistilled water was added, and the bottles were placed in a shaking water bath at 37 C. The bath was set to make 100 one-inch strokes per minute. The bathing solution was changed every 24 hours. The CDB-2914 concentration in the aqueous medium was measured via HPLC to determine the release rate of CDB-2914.
Using the same in vitro release rate analysis, vaginal rings were prepared containing either CDB-2914 (20% load, W/W) or mifepristone (20% load, W/W) with several different diameters of silicone tubes, and with tubes containing 18% ethylene vinyl acetate (EVA) as a rate-limiting layer. The rings were prepared by mixing CDB-2914 in a silicone elastomer matrix that was filled into a silicone tube. Upon polymerization, tube was cut into a 16 cm length and the two ends were joined with medical adhesive to form a ring. This vaginal ring has an inner layer of silicone rubber and active agent, and an outer, rate limiting layer. With a silicone tube containing 18% EVA, CDB-2914 was released at the rate of about 96 μg/ring/day, whereas the release of mifepristone was negligible. Using silicone tube C, CDB-2914 was diffused out at more than a 3-fold higher rate than mifepristone (160 μg/ring/day vs. 48 μg/ring/day).

[2] = Water solubility; assay type: physicochemical
[3] = Pharmacokinetic study of vaginal rings in women (serum levels by radioimmunoassay and LC/MS); assay type: in vivo
Procedure: A pharmacokinetic study was conducted abroad in two clinics. Radioimmunoassay and liquid chromatography/mass spectroscopic method (LC/MS) were used to measure the serum levels of CDB-2914 and its immunoreactive metabolites. […] After insertion of the ring into the subjects, CDB-2914 was absorbed into the blood stream, increased continuously and reached a plateau at approximately 7 days post-insertion (2-3 ng/mL). Serum levels decreased upon removal of ring at Day 29 (See FIGS. 5A and 5B).

[4] = silicone tube containing 18% EVA as rate-limiting layer

| Structure (SMILES) | in vitro release rate ([1]; silicone tube C) [μg/ring/day] | in vitro release rate [1, 4] | water solubility [2] | serum levels upon removal of ring ([3]; ring removed at Day 29) | bursting release immediately after insertion of the rings ([3]; vaginal ring) | serum concentration compared to Nestorone (NES) ([3]; vaginal ring) | time to reach serum plateau ([3]; vaginal ring) | serum level at plateau ([3]; vaginal ring, plateau at approximately 7 days post-insertion) [ng/mL] | release rate relative to mifepristone ([1]; silicone tube C) [fold] |
| --- | --- | --- | --- | --- | --- | --- | --- | --- | --- |
| CC#C[C@]1(O)CC[C@H]2[C@@H]3CCC4=CC(=O)CCC4=C3[C@@H](c3ccc(N(C)C)cc3)C[C@@]21C [mifepristone, reference compound] | 48 | negligible | – | – | – | – | – | – | – |
| CC(=O)O[C@]1(C(C)=O)CC[C@H]2[C@@H]3CCC4=CC(=O)CCC4=C3[C@@H](c3ccc(N(C)C)cc3)C[C@@]21C [CDB-2914, 17α-acetoxy-11β-(4-N,N-dimethylaminophenyl)-19-norpregna-4,9-diene-3,20-dione] | 160 | about 96 μg/ring/day | not water soluble | decreased | No bursting release | higher than that of Nestorone | approximately 7 days post-insertion | 2 to 3 | > 3 |
